Measured values: patent US7166635B2, “3-imino-2-indolones for the treatment of depression and/or anxiety” (H. Lundbeck A/S, priority 2002, dated 2007)

The compounds below were run against T1, human GalR3 receptor (Homo sapiens, UniProt O60755) (assay: Radioligand binding at cloned human GalR3 receptor). Settings: Binding Data; membranes of LM(tk-) cells stably transfected with human GalR3.
T1 construct: expressed in transfected cells; membranes
T1 sequence (O60755 1-368): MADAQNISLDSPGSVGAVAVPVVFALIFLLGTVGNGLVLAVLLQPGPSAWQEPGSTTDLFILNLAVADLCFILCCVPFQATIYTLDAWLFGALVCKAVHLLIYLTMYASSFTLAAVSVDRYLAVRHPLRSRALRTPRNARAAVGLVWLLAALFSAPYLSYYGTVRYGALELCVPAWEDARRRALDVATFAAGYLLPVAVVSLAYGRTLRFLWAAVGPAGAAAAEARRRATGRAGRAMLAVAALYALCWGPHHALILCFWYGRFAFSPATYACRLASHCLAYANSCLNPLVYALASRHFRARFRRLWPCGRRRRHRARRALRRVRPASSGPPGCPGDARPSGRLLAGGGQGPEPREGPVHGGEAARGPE
Protocol: The present invention provides for a method of determining the binding affinity of a GalR3 antagonist, wherein the GalR3 antagonist is dissolved in a “suitable solvent”. A “suitable solvent” means one which permits the measurement of binding affinity of the GalR3 antagonist to the human GalR3 receptor at concentrations less than 1 μM, preferably less than 100 nM. Examples of solvents include, but are not limited to, DMSO, ethanol, N,N-dimethylacetamide, or water. For indolones, the preferred solvent is 3% DMSO (final concentration in the assay). For any other type of compounds, the preferred solvent is the solvent which permits the measurement of binding affinity of a GalR3 antagonist at the lowest concentration.
COS-7 cells were grown on 150 mm plates in D-MEM with supplements (Dulbecco's Modified Eagle Medium with 10% bovine calf serum, 4 mM glutamine, 100 units/ml penicillin, 100 μg/ml streptomycin) at 37° C. with 5% CO2. Stock plates of COS-7 cells were trypsinized and split 1:6 every 3–4 days. Human embryonic kidney 293 cells were grown on 150 mm plates in D-MEM with supplements (minimal essential medium) with Hanks' salts and supplements (Dulbecco's Modified Eagle Medium with 10% bovine calf serum, 4 mM glutamine, 100 units/ml penicillin, 100 μg/ml streptomycin) at 37° C. with 5% CO2. Stock plates of 293 cells were trypsinized and split 1:6 every 3–4 days. Mouse fibroblast LM(tk-) cells were grown on 150 mm plates in D-MEM with supplements (Dulbecco's Modified Eagle Medium with 10% bovine calf serum, 4 mM glutamine, 100 units/mL penicillin, 100 μg/mL streptomycin) at 37° C. with 5% CO2. Stock plates of LM(tk-) cells were trypsinized and split 1:10 every 3–4 days. Chinese Hamster Ovary (CHO) cells were grown on 150 mm plates in HAM's F12 medium with (HAM's F-12 with 10% bovine calf serum, 4 mM glutamine, 100 units/mL penicillin, 100 μg/mL streptomycin) at 37° C. with 5% CO2. Stock plates of CHO cells were trypsinized and split 1:8 every 3–4 days. LM(tk-) cells were stably transfected with the human GalR3 receptor.
cDNAs for the human and rat GalR3 receptors were transfected with a G-418 resistant gene into the mouse fibroblast LM(tk-) cell line by a calcium phosphate transfection method (Cullen, 1987).
Membranes were harvested from stably transfected LM(tk-) cells. Adherent cells were washed twice in ice-cold phosphate buffered saline (138 mM NaCl, 8.1 mM Na2HPO4, 2.5 mM KCl, 1.2 mM KH2PO4, 0.9 mM CaCl2, 0.5 mM MgCl2, pH 7.4) and lysed by sonication in ice-cold sonication buffer (20 mM Tris-HCl, 5 mM EDTA, pH 7.7). Large particles and debris were cleared by low speed centrifugation (200×g, 5 min, 4° C.). Membranes were collected from the supernatant fraction by centrifugation (32,000×g, 18 min, 4° C.), washed with ice-cold hypotonic buffer, and collected again by centrifugation (32,000×g, 18 min, 4° C.). The final membrane pellet was resuspended by sonication into a small volume of ice-cold binding buffer (˜1 ml for every 5 plates: 10 mM NaCl, 20 mM HEPES, 0.22 mM KH2PO4, 1.26 mM CaCl2, 0.81 mM MgSO4, pH 7.4). Protein concentration was measured by the Bradford method (Bradford, 1976) using Bio-Rad Reagent, with bovine serum albumin as a standard. Membranes were held on ice for up to one hour and used fresh, or flash frozen and stored in liquid nitrogen. Membranes were prepared similarly from CHO cells.
The methods to obtain the cDNA of the receptors, express said receptors in heterologous systems, and carry out assays to determine binding affinity are described as follows.
Binding assays were performed according to the following published method: human GALR3 (PCT International Publication No. WO 98/15570).

| SMILES | Ki [nM] |
| --- | --- |
| COc1ccc(N2C(=O)C(=Nc3ccc(Cl)c(Cl)c3)c3cc(Cl)ccc32)cn1 (racemic) [Example 3, 5-CHLORO-3-[(3,4-DICHLOROPHENYL)IMINO]-1-(6-METHOXY-3-PYRIDINYL)-1,3-DIHYDRO-2H-INDOL-2-ONE] | 20 |
| O=C1/C(=N\c2ccc3c(c2)OC(F)(F)O3)c2ccccc2N1c1ccc(O)cc1 [Example 1, 3-[(2,2-DIFLUORO-1,3-BENZODIOXOL-5-YL)IMINO]-1-(4-HYDROXYPHENYL)-1,3-DIHYDRO-2H-INDOL-2-ONE] | 72 |
| COc1ccc(N2C(=O)/C(=N\c3ccc(Cl)c(Cl)c3)c3ccccc32)cn1 [Example 2, 3-[(3,4-DICHLOROPHENYL)IMINO]-1-(6-METHOXY-3-PYRIDINYL)-1,3-DIHYDRO-2H-INDOL-2-ONE] | 15 |
| O=C1/C(=N\c2cccc(C(F)(F)F)c2)c2ccc(O)cc2N1c1ccccc1 [Example 4, 6-HYDROXY-1-PHENYL-3-{[3-(TRIFLUOROMETHYL)PHENYL]IMINO}-1,3-DIHYDRO-2H-INDOL-2-ONE] | 55 |
| O=C1/C(=N\c2ccc(Cl)c(Cl)c2)c2ccccc2N1c1ccc(O)cc1 [Example 5, 3-[(3,4-DICHLOROPHENYL)IMINO]-1-(4-HYDROXYPHENYL)-1,3-DIHYDRO-2H-INDOL-2-ONE] | 27 |
| O=C1/C(=N\c2cc(F)cc(F)c2)c2ccccc2N1c1ccc(O)cc1 [Example 6, 3-[(3,5-DIFLUOROPHENYL)IMINO]-1-(4-HYDROXYPHENYL)-1,3-DIHYDRO-2H-INDOL-2-ONE] | 41 |
| O=C1/C(=N\c2cccc(C(F)(F)F)c2)c2ccccc2N1c1cccc(O)c1 [Example 7, 1-(3-HYDROXYPHENYL)-3-{[3-(TRIFLUOROMETHYL)PHENYL]IMINO}-1,3-DIHYDRO-2H-INDOL-2-ONE] | 28 |
| O=C1/C(=N\c2cccc(C(F)(F)F)c2)c2ccccc2N1c1ccccc1O [Example 8, 1-(2-HYDROXYPHENYL)-3-{[3-(TRIFLUOROMETHYL)PHENYL]IMINO}-1,3-DIHYDRO-2H-INDOL-2-ONE] | 68 |
| O=C1/C(=N\c2cccc(C(F)(F)F)c2)c2cc(O)ccc2N1c1ccccc1 [Example 9, 5-HYDROXY-1-PHENYL-3-{[3-(TRIFLUOROMETHYL)PHENYL]IMINO}-1,3-DIHYDRO-2H-INDOL-2-ONE] | 58 |
| COc1ccc(N2C(=O)/C(=N\c3cccc(C(F)(F)F)c3)c3ccccc32)cn1 [Example 10, 3-[(3-TRIFLUOROMETHYLPHENYL)IMINO]-1-(6-METHOXY-3-PYRIDINYL)-1,3-DIHYDRO-2H-INDOL-2-ONE] | 31 |
